A word on the Ki: it is the dissociation constant of the complex between target and ligand, obtained from inhibition or displacement.

Where only a bound is given, the exact number is not on record here.

Holding throughout (assay type): biochemical
The target of one assay is T1, hCA I (Homo sapiens, UniProt P00915).
T1 construct: made in house
Put plainly: stopped-flow CO2 hydrase assay, hCA I. The settings on record: recombinant hCA I; mean from 3 different assays, errors ±5–10%. As to the method:
(§1) An applied photophysics stopped-flow instrument has been used for assaying the CA-catalyzed CO2 hydration activity. Phenol red (0.2 mM) has been used as indicator, working at the absorbance maximum of 557 nm, with 20 mM Hepes (pH 7.5, for α-CAs) as buffer, and 20 mM NaClO4 (for maintaining constant the ionic strength), following the initial rates of the CA-catalyzed CO2 hydration reaction for a period of 10–100 s. The CO2 concentrations ranged from 1.7 to 17 mM for the determination of the kinetic parameters and inhibition constants. […] The uncatalyzed rates were determined in the same manner and subtracted from the total observed rates. Stock solutions of each inhibitor (1 µM) were prepared in distilled-deionized water and dilutions up to 0.1 nM were done thereafter with the assay buffer. […] The inhibition constants were obtained by non-linear least-squares methods using PRISM 3 and the Cheng–Prusoff equation, and represent the average from at least three different determinations. All recombinant CA isoforms were obtained in-house as previously reported[38]^,[39].

The next assay deals with T2, hCA II (Homo sapiens, UniProt P00918).
T2 construct: made in house
In words: stopped-flow CO2 hydrase assay, hCA II. The following applies: recombinant hCA II; mean from 3 different assays, errors ±5–10%. As to the method:
as §1

The next assay deals with T3, hCA IX (Homo sapiens, UniProt Q16790).
T3 construct: made in house
Put plainly: stopped-flow CO2 hydrase assay, hCA IX. The following applies: recombinant hCA IX; mean from 3 different assays, errors ±5–10%. As to the method:
as §1

In a further assay the target is T4, hCA XII (Homo sapiens, UniProt O43570).
T4 construct: made in house
In words: stopped-flow CO2 hydrase assay, hCA XII. The following applies: recombinant hCA XII; mean from 3 different assays, errors ±5–10%. As to the method:
as §1

T1 sequence (P00915 whole entry): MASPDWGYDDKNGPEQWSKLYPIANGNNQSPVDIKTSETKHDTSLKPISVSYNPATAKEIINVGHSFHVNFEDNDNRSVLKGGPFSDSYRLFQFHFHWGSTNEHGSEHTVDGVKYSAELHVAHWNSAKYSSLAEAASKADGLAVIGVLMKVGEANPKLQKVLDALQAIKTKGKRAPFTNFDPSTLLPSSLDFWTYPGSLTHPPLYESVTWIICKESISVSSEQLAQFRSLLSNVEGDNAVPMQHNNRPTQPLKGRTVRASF
T4 sequence (O43570 25-354): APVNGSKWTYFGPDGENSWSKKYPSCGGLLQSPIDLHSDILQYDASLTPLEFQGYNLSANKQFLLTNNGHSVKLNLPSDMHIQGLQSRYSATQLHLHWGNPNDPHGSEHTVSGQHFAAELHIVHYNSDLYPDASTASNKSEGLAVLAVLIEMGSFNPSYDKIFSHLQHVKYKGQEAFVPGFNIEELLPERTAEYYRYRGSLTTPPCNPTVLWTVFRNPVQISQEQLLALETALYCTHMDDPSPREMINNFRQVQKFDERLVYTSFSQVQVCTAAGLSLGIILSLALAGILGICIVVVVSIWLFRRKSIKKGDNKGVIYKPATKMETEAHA

For `Cc1ccccc1CNS(=O)(=O)c1ccccc1CO` [Compound 1, 2-(Hydroxymethyl)-N-(2-methylbenzyl)benzenesulfonamide], the Ki was > 10000 nM at hCA I, > 10000 nM on hCA II, 218 nM on hCA IX and 4.6 nM on hCA XII.
Turning to `O=S(=O)(NCc1ccccc1C(F)(F)F)c1ccccc1CO` [Compound 2, 2-(Hydroxymethyl)-N-(2-(trifluoromethyl)benzyl)benzenesulfonamide], the Ki is > 10000 nM on hCA I, > 10000 nM at hCA II, 200 nM at hCA IX and 54 nM on hCA XII.
`O=[N+]([O-])c1ccccc1CNS(=O)(=O)c1ccccc1CO` [Compound 3, 2-(Hydroxymethyl)-N-(2-nitrobenzyl)benzenesulfonamide]: the Ki at hCA I is > 10000 nM; on hCA II, > 10000 nM; on hCA IX, 104 nM; at hCA XII, 383 nM.
In the case of `O=S(=O)(NCc1ccccc1Br)c1ccccc1CO` [Compound 4, N-(2-bromobenzyl)-2-(hydroxymethyl)benzenesulfonamide], the inhibition constant Ki was > 10000 nM on hCA I, > 10000 nM on hCA II, 113 nM on hCA IX and 323 nM on hCA XII.
Turning to `Cc1cccc(CNS(=O)(=O)c2ccccc2CO)c1` [Compound 5, 2-(Hydroxymethyl)-N-(3-methylbenzyl)benzenesulfonamide], the Ki is > 10000 nM on hCA I, > 10000 nM on hCA II, 223 nM on hCA IX and 4.3 nM on hCA XII.
As to `O=S(=O)(NCc1cccc(C(F)(F)F)c1)c1ccccc1CO` [Compound 6, 2-(Hydroxymethyl)-N-(3-(trifluoromethyl)benzyl)benzenesulfonamide], the Ki on hCA I was > 10000 nM; at hCA II, > 10000 nM; at hCA IX, 238 nM; on hCA XII, 4.4 nM.
For the compound `O=[N+]([O-])c1cccc(CNS(=O)(=O)c2ccccc2CO)c1` [Compound 7, 2-(Hydroxymethyl)-N-(3-nitrobenzyl)benzenesulfonamide], the Ki is > 10000 nM on hCA I, > 10000 nM at hCA II, 176 nM at hCA IX and 382 nM on hCA XII.
Regarding `O=S(=O)(NCc1cccc(F)c1)c1ccccc1CO` [Compound 8, N-(3-fluorobenzyl)-2-(hydroxymethyl)benzenesulfonamide], the Ki at hCA I is > 10000 nM; at hCA II, > 10000 nM; on hCA IX it was 268 nM; on hCA XII it was 247 nM.
For the compound `O=S(=O)(NCc1cccc(Br)c1)c1ccccc1CO` [Compound 9, N-(3-bromobenzyl)-2-(hydroxymethyl)-benzenesulfonamide], the Ki was > 10000 nM at hCA I, > 10000 nM at hCA II, 267 nM on hCA IX and 64 nM on hCA XII.
Turning to `Cc1ccc(CNS(=O)(=O)c2ccccc2CO)cc1` [Compound 10, 2-(Hydroxymethyl)-N-(4-methylbenzyl)benzenesulfonamide], the Ki at hCA I was > 10000 nM; on hCA II, > 10000 nM; on hCA IX, 120 nM; on hCA XII, 5.7 nM.
Turning to `O=S(=O)(NCc1ccc(C(F)(F)F)cc1)c1ccccc1CO` [Compound 11, 2-(Hydroxymethyl)-N-(4-(trifluoromethyl)benzyl)benzenesulfonamide], the Ki on hCA I was > 10000 nM; at hCA II, > 10000 nM; at hCA IX it was 253 nM; at hCA XII, 7.2 nM.
For the compound `N#Cc1ccc(CNS(=O)(=O)c2ccccc2CO)cc1` [Compound 12, N-(4-cyanobenzyl)-2-(hydroxymethyl)benzenesulfonamide], the Ki on hCA I is > 10000 nM; at hCA II, > 10000 nM; on hCA IX it was 126 nM; on hCA XII, 57 nM.
For `O=[N+]([O-])c1ccc(CNS(=O)(=O)c2ccccc2CO)cc1` [Compound 13, 2-(Hydroxymethyl)-N-(4-nitrobenzyl)benzenesulfonamide], the inhibition constant Ki at hCA I was > 10000 nM; on hCA II, > 10000 nM; on hCA IX, 20 nM; on hCA XII it was 54 nM.
Take `O=S(=O)(NCc1ccc(F)cc1)c1ccccc1CO` [Compound 14, N-(4-fluorobenzyl)-2-(hydroxymethyl)benzenesulfonamide]: the inhibitory constant (Ki) on hCA I is > 10000 nM; on hCA II, > 10000 nM; at hCA IX, 26 nM; on hCA XII it was 63 nM.
`O=S(=O)(NCc1ccc(Cl)cc1)c1ccccc1CO` [Compound 15, N-(4-chlorobenzyl)-2-(hydroxymethyl)benzenesulfonamide]: the Ki on hCA I was > 10000 nM; on hCA II, > 10000 nM; at hCA IX, 154 nM; on hCA XII, 48 nM.
In the case of `O=S(=O)(NCc1ccc(Br)cc1)c1ccccc1CO` [Compound 16, N-(4-bromobenzyl)-2-(hydroxymethyl)benzenesulfonamide], the inhibition constant Ki at hCA I was > 10000 nM; at hCA II it was > 10000 nM; on hCA IX it was 145 nM; on hCA XII, 432 nM.
For `O=S(=O)(NCc1c(F)cccc1F)c1ccccc1CO` [Compound 17, N-(2,6-difluorobenzyl)-2-(hydroxymethyl)benzenesulfonamide], the inhibition constant Ki on hCA I is > 10000 nM; at hCA II, > 10000 nM; at hCA IX, 296 nM; on hCA XII, 45 nM.
As for `O=S(=O)(NCc1ccc(Cl)c(Cl)c1)c1ccccc1CO` [Compound 18, N-(3,4-dichlorobenzyl)-2-(hydroxymethyl)benzenesulfonamide], the Ki at hCA I was > 10000 nM; on hCA II, > 10000 nM; on hCA IX, 298 nM; on hCA XII it was 40 nM.
As to `O=S(=O)(NCc1cccc2ccccc12)c1ccccc1CO` [Compound 19, 2-(Hydroxymethyl)-N-(naphthalen-1-ylmethyl)benzenesulfonamide], the inhibition constant (Ki) was > 10000 nM at hCA I, > 10000 nM at hCA II, 294 nM on hCA IX and 345 nM at hCA XII.
For the compound `O=S(=O)(NCC(O)c1ccccc1)c1ccccc1CO` (stereo not drawn) [Compound 20, N-(2-hydroxy-2-phenylethyl)-2-(hydroxymethyl)benzenesulfonamide], the Ki at hCA I is > 10000 nM; on hCA II, > 10000 nM; on hCA IX it was 224 nM; at hCA XII, 64 nM.
With `COc1cccc(C(O)CNS(=O)(=O)c2ccccc2CO)c1` (stereo not drawn) [Compound 21, N-(2-hydroxy-2-(3-methoxyphenyl)ethyl)-2-(hydroxymethyl)benzenesulfonamide], the inhibitory constant (Ki) on hCA I was > 10000 nM; at hCA II, > 10000 nM; at hCA IX, 31 nM; on hCA XII, 355 nM.

(Values after PMC6009879, “Open saccharin-based secondary sulfonamides as potent and selective inhibitors of cancer-related carbonic anhydrase IX and XII isoforms” (Journal of Enzyme Inhibition and Medicinal Chemistry, 2016).)
